# Results taken from article PMC10884759, “Decreased pyruvate dehydrogenase activity in Tafazzin-deficient cells is caused by dysregulation of pyruvate dehydrogenase phosphatase 1 (PDP1)” (The Journal of Biological Chemistry, 2024).
# Target: T1, PDP1 (PDH phosphatase 1; PDP1-His6) (Mus musculus, UniProt Q3UV70)
# T1 construct: mature polypeptide (transit peptide removed; forward primer encodes ASTPQKFY after start Met), C-terminal His6 from pET-28a, E. coli BL21(DE3) with pGro7 chaperones, Ni-NTA purified
# T1 sequence (Q3UV70 72-538): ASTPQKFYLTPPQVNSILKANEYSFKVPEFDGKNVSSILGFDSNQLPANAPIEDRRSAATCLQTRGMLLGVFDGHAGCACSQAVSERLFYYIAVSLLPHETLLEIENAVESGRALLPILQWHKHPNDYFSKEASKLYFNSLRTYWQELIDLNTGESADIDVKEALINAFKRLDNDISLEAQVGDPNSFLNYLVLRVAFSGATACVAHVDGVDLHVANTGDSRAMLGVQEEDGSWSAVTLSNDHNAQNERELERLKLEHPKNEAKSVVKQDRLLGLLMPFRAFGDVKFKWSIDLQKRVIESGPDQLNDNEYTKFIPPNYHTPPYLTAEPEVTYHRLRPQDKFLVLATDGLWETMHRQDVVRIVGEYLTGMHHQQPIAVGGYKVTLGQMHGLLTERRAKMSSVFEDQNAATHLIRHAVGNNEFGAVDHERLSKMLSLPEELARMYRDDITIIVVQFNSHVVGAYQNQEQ
# Test: protein-lipid overlay on PVDF, anti-His immunoblot
# Type: binding
# Conditions: lipid spotted at 31.25-500 μM, 1 μl; pH 7.5, 4 °C overnight, 3% BSA
smiles,measurement,value
CCCCC/C=C\C/C=C\CCCCCCCC(=O)OC[C@H](COP(=O)(O)OCC(O)COP(=O)(O)OC[C@@H](COC(=O)CCCCCCC/C=C\C/C=C\CCCCC)OC(=O)CCCCCCC/C=C\C/C=C\CCCCC)OC(=O)CCCCCCC/C=C\C/C=C\CCCCC (some centres unmarked) [TLCL],"protein-lipid overlay on PVDF, anti-His immunoblot",only PDP1 was shown to bind with TLCL (Fig. 2B)
CCCCCCCC/C=C\CCCCCCCC(=O)OC[C@H](COP(=O)(O)O)OC(=O)CCCCCCC/C=C\CCCCCCCC [phosphatidic acid],"protein-lipid overlay on PVDF, anti-His immunoblot",PA is also bound to PDP1 (and to E1)
